Data set [1] can be described thus: Cytotoxicity against human Molt 4/C8 cells. In kind it is functional, cell-based. The settings on record: Molt4/C8.
Data set [2] has as its system CCRF-CEM. As to the kind of experiment: Cytotoxicity against human CEM cells. Format: functional, cell-based.
Data set [3] concerns L1210. As to the kind of experiment: Cytotoxicity against mouse L1210 cells. In kind it is functional, cell-based.
The nature of data set [4]: Cytotoxicity against human colon cancer cells. In kind it is functional. The note with it: Cancer cell lines.
Data set [5] can be described thus: Cytotoxicity against human leukemia cells. Format: functional. The settings on record: Leukemia cell.
For data set [6], the target named is T1, Glycylpeptide N-tetradecanoyltransferase 1 (Homo sapiens) (UniProt P30419).
T1 sequence (whole entry): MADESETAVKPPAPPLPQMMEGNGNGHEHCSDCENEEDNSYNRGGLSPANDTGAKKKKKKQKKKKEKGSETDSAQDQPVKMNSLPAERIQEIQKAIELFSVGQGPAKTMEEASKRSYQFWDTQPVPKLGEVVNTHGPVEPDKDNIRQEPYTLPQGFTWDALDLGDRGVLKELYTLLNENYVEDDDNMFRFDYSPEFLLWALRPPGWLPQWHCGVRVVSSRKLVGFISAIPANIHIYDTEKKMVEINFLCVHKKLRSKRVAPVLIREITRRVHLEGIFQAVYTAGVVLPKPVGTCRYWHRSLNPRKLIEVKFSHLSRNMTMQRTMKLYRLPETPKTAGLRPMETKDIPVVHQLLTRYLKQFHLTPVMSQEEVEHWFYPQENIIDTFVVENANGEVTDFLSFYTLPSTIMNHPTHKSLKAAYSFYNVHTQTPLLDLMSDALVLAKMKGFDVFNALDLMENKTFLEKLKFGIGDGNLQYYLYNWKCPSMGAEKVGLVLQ
As to the kind of experiment: Inhibition of human NMT at 100 uM.

In data set [7] the test system is Aspergillus fumigatus. As to the kind of experiment: Antifungal activity against Aspergillus fumigatus F69827. Format: functional.
The test system of data set [8] is Aspergillus fumigatus. As to the kind of experiment: Antifungal activity against Aspergillus fumigatus M44251. In kind it is functional.
Data set [9] has as its system Aspergillus fumigatus. As to the kind of experiment: Antifungal activity against Aspergillus fumigatus ATCC 280995. Format: functional.
The subject of data set [10] is Aspergillus fumigatus. As to the kind of experiment: Antifungal activity against Aspergillus fumigatus ATCC 280996. In kind it is functional.
Data set [11] concerns Aspergillus fumigatus. As to the kind of experiment: Antifungal activity against Aspergillus fumigatus ATCC 280997. In kind it is functional.
The subject of data set [12] is Mus musculus. As to the kind of experiment: Neurotoxicity in mouse assessed as mortality up to 300 mg/kg after 4 hrs. Format: toxicity, organism-based. Set-up: dose 300 mg/kg. The note with it: in vivo.
Data set [13] deals with T1, Glycylpeptide N-tetradecanoyltransferase 1 (Homo sapiens). As to the kind of experiment: Inhibition of human NMT at 50 uM.

Each structure is given as a SMILES string.

`O=C(/C=C/C(=O)N1C/C(=C\c2ccccc2)C(=O)/C(=C/c2ccccc2)C1)Nc1ccc(Cl)c(Cl)c1`: the IC50 was found to be 1700 nM in data set [1], 350 nM in data set [2] and 7500 nM in data set [3]. For the same compound, the GI50 in data set [4] worked out at 646 nM; in data set [5] it was 447 nM. Besides, the inhibition in data set [6] stood at 50%. The MIC in [7], in data set [8], in data set [9], in data set [10] and in data set [11] was above 50 µg/mL throughout. The Activity entry in data set [12] is on record as “Non-toxic”.
As for `Cc1ccc(NC(=O)/C=C/C(=O)N2C/C(=C\c3ccccc3)C(=O)/C(=C/c3ccccc3)C2)cc1`, the IC50 in data set [1] came out at 660 nM; in data set [2], 1100 nM; in data set [3], 5800 nM. This compound came in with an inhibition in data set [13] of 50%. Also, the MIC in data set [7], in [8], in data set [9], in data set [10] and in data set [11] was above 50 µg/mL in each case. Further, the Activity entry in data set [12] was “Non-toxic”.
With `Cc1ccc(NC(=O)/C=C/C(=O)N2C/C(=C\c3ccc([N+](=O)[O-])cc3)C(=O)/C(=C/c3ccc([N+](=O)[O-])cc3)C2)cc1`, the IC50 worked out at 700 nM in data set [1], 890 nM in [2] and 4400 nM in [3]. In data set [13], this compound displayed an inhibition of 50%. Further, the MIC in [7], in data set [8], in [9], in [10] and in data set [11] was above 50 µg/mL throughout. Further, in [12], the Activity result was “Non-toxic”.
As for `O=C(/C=C/C(=O)N1C/C(=C\c2ccc([N+](=O)[O-])cc2)C(=O)/C(=C/c2ccc([N+](=O)[O-])cc2)C1)Nc1ccc(Cl)c(Cl)c1`, the values for the IC50 in data set [1], in [2] and in data set [3] were 600 nM, 380 nM and 1700 nM, respectively. In data set [6], the inhibition amounted to 50%. The MIC in [7], in data set [8], in data set [9], in [10] and in data set [11] was above 50 µg/mL throughout. Moreover, the Activity entry in [12] is recorded as “Non-toxic”.

Values taken from ChEMBL document CHEMBL1149619, “E,E,E-1-(4-Arylamino-4-oxo-2-butenoyl)-3,5-bis(arylidene)-4-piperidones: a topographical study of some novel potent cytotoxins” (Bioorg Med Chem, 2007).
